Tests used:
Bacillus subtilis = test: Antibacterial activity against Bacillus subtilis ATCC 6633 after 24 hrs by agar-based microtiter plate assay; type: functional
Enterococcus faecalis = test: Antibacterial activity against Enterococcus faecalis ATCC 29212 after 24 hrs by agar-based microtiter plate assay; type: functional
Staphylococcus aureus = test: Antibacterial activity against Staphylococcus aureus ATCC 25923 after 24 hrs by agar-based microtiter plate assay; type: organism-based
Bacillus cereus = test: Antibacterial activity against Bacillus cereus ATCC 11778 after 24 hrs by agar-based microtiter plate assay; type: organism-based

Structure (SMILES) | LD99 (Bacillus subtilis) | LD99 (Enterococcus faecalis) | LD99 (Staphylococcus aureus) | LD99 (Bacillus cereus)
COC(=O)[C@]12Oc3c(Br)c(C)c(-c4c(C)c(Br)c(O)c5c4O[C@@]4(C(=O)OC)C(=C(O)CC[C@@H]4O)C5=O)c(O)c3C(=O)C1=C(O)CC[C@@H]2O | 6.3 µg/mL |  |  | 
COC(=O)[C@]12Oc3cc(C)c(-c4c(C)cc5c(c4O)C(=O)C4=C(O)CC[C@H](O)[C@@]4(C(=O)OC)O5)c(O)c3C(=O)C1=C(O)CC[C@@H]2O [RUGULOTROSIN A] |  | 1.6 µg/mL | 200 µg/mL | 3.1 µg/mL
COC(=O)[C@]12Oc3cc(C)c(-c4c(C)cc(O)c5c4O[C@@]4(C(=O)OC)C(=C(O)CC[C@@H]4O)C5=O)c(O)c3C(=O)C1=C(O)CC[C@@H]2O [RUGULOTROSIN B] | 25 µg/mL |  |  | 

Reference: ChEMBL document CHEMBL1151191, “Rugulotrosins A and B: Two new antibacterial metabolites from an Australian isolate of a Penicillium sp” (J Nat Prod, 2004)
